From US9296760B2, “Antibacterial compounds” (JANSSEN SCIENCES IRELAND UC, priority 2012, dated 2016)
≈ marks a conversion by molar mass, not a printed value.

Key:
[1] = target: T1, S. aureus ATCC 29213 FabI (Staphylococcus aureus, UniProt Q6GI75); assay: Staphylococcus aureus FabI enzyme inhibition assay; format: biochemical; settings: NADH consumption, 30 minutes, read-out: FabI (300.235) IC50 (converted)
T1 sequence (Q6GI75 1-256): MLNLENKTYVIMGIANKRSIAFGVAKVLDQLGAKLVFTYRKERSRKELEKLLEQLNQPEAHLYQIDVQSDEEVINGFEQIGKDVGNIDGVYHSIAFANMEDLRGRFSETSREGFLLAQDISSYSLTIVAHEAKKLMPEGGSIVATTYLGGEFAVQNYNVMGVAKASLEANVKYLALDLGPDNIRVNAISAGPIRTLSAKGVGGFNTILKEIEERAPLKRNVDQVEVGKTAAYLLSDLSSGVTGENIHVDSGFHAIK
Protocol: Y.1 FabI Enzyme Inhibition: Staphylococcus aureus FabI Enzyme Inhibition Assay
FabI enzyme inhibition assays were carried out in half-area, 384-well microtitre plates. […] The reaction mixtures were incubated for 30 minutes at room temperature and the reaction was stopped by adding 200 mM Tris buffer (pH 9.0) to create a pH-shift. The consumption of NADH was monitored by measuring the change in absorbance at […]. By comparing sample readings to those of negative (absence of compound) and positive (absence of enzyme) controls, the percent inhibition of enzymatic activity of the compounds was determined A best-fit curve is fitted by a minimum of squares method. From this an IC50-value (expressed in μg/ml), resulting in 50% inhibition of enzymatic activity, was obtained.

[2] = system: Staphylococcus aureus ATCC 29213; assay: Antibacterial susceptibility testing, IC90 determination (broth microdilution, resazurin); format: cell-based; settings: Staphylococcus aureus, ATCC29213, S. aureus ATCC 29213; 90% inhibitory concentration for bacterial growth; read-out: STA (361.159) IC90
Protocol: Y.2 In Vitro Method for Testing Compounds for Antibacterial Activity Against Various Bacterial Strains
Preparation of Bacterial Suspensions for Susceptibility Testing
The following bacteria were used: Staphylococcus aureus ATCC 29213, methicillin-resistant Staphylococcus aureus (MRSA) ATCC 700788 and Escherichia coli ATCC 35218. The bacteria used in this study were grown overnight in flasks containing 100 ml Mueller-Hinton broth (Difco cat. nr. 0757-17) in sterile de-ionized water, with shaking, at 37° C. Stocks were store at −70° C. until use.
Bacteria were incubated on a tryptic soy agar plate containing 5% sheep blood (Becton Dickinson cat. nr. 254053) for 18-24 hours at 35° C. in aerobic conditions (first passage). For the second passage, fresh Mueller-Hinton broth is inoculated with 5-10 colonies and grown overnight at 35° C. until turbidity (reaching log-phase) in aerobic conditions is reached. The bacterial suspension is then adjusted to 0.5 McFarland density and further diluted 1:100 in Mueller Hinton broth medium. This is used as inoculum.
The result(s) are depicted the table below (for STA ATCC 29213).
Antibacterial Susceptibility Testing: IC90 Determination
(§1) MIC assays were performed by the broth microdilution method in a 96-well format (flat-bottom microtitre plates) with a final volume of 0.1 ml Mueller Hinton broth containing two-fold serial dilutions of compounds and inoculated with 5×10^5 CFU/ml of bacteria (standard inoculum size according to CLSI guidelines). Inhibitors are typically varied over the range of 63 to 0.49 μM. The final DMSO concentration in the assay was 1.25% (maximum tolerable DMSO concentration=6%). In the assays where the effect of human serum on the activity of the compounds against S. aureus was tested, human serum was added at a final concentration of 10%. The plates were incubated at 35° C. for 16-20 hours. At the end of incubation the bacterial growth was quantified fluorometrically. For this, resazurin was added to all wells and the plates were re-incubated. The incubation time is dependent on the type of bacteria. A change in color from blue to pink indicated the growth of bacteria. The fluorescence was read in computer-controlled fluorometer (Fluoroskan Ascent FL, Labsystems) at an excitation wavelength 540 nm and an emission wavelength of 590 nm. The % growth inhibition achieved by the compounds was calculated according to standard methods. The IC90 (expressed in μg/ml) was defined as the 90% inhibitory concentration for bacterial growth. A panel of reference compounds were simultaneously tested for QC approval.

S. aureus = assay: Antibacterial susceptibility testing, IC90 determination with 10% human serum; format: cell-based, Staphylococcus aureus; settings: Staphylococcus aureus, S. aureus with human serum at final concentration of 10%; read-out: STA + 10% HS (361.169) IC90
Protocol: as §1, with “Antibacterial Susceptibility Testing: IC90 Determination MIC” for “MIC”, “approval. The results are depicted in the table(s) below (STA+10% HS).” for “approval.”

Cytotoxicity MTT assay = format: cell-based, Human; settings: human, HelaM cells, read-out: HELAM (222.125) CC50
Protocol: Cytotoxicity of the compounds was evaluated using the MTT assay. Human HelaM cells grown in 96-well plates were exposed to serial dilutions of the tested compounds (final volume of 0.2 ml) and incubated for 72 hours at 37° C. and 5% CO2 Inhibitors are typically varied over the range of 25 to 0.8 μM. The final DMSO concentration in the assay is 0.5%. MTT (3-(4,5-Dimethylthiazol-2-yl)-2,5-diphenyltetrazolium bromide, a tetrazole) was added and reduced to purple formazan only in living cells. Solubilization of the formazan crystals was achieved by adding 100 μl 2-propanol. Cell viability was determined by measuring the absorbance of the reduced formazan, giving a purple color, at 540 nm and 690 nm. The absorbance measured at 690 nm was automatically subtracted from the absorbance at 540 nm, to eliminate the effects of non-specific absorption. The percent cytotoxicity achieved by the compounds was calculated according to standard methods. Cytotoxicity is reported as CC50, the concentration that causes a 50% reduction in cell viability.
The results are depicted in the table(s) below (HELAM).

| Compound | melting point | IC50 [1] | IC90 [2] | IC90 (S. aureus) | CC50 at 72 h (Cytotoxicity MTT assay) |
| --- | --- | --- | --- | --- | --- |
| O=C1Nc2ncc(/C=C/C(=O)N3CCC=C(c4ccccc4)CC3)cc2CN2CCSCC12 (stereo not shown) [Compound K1] | 224 °C |  |  |  |  |
| COc1ccc(F)cc1C1=CCCN(C(=O)/C=C/c2cnc3c(c2)CN2CCN(C(C)=O)CC2C(=O)N3)CC1 (stereo not shown) [compound 48] |  | 1.11 µM | < 0.26 µg/mL | 0.46 µg/mL | > 13.4 µg/mL |
| CC(C)Nc1ccc(/C=C/C(=O)N2CCC=C(c3ccccc3)CC2)cn1 [compound 24] |  | 5.26 µM | 21 µg/mL (≈ 58.2 µM) | > 22.8 µg/mL | > 9.08 µg/mL |
| COc1ccc(CN2CC(=O)Nc3ncc(/C=C/C(=O)N4CCC=C(c5ccccc5)CC4)cc3C2)cc1 [compound 44] | 198 °C | ~2.81 µM | 4.8 µg/mL (≈ 9.44 µM) | 3.64 µg/mL | > 12.8 µg/mL |
| O=C(Nc1ccc(/C=C/C(=O)N2CCC=C(c3ccccc3)CC2)cn1)c1ccccn1 [compound 27] |  | 2.1 µM | > 26.8 µg/mL | > 26.8 µg/mL | 3.83 µg/mL (≈ 9.02 µM) |
| CC(C)(C)C(=O)Nc1ccc(/C=C/C(=O)N2CCC=C(c3ccccc3)CC2)cn1 [compound 25] |  | 2.03 µM | > 25.5 µg/mL | > 25.5 µg/mL | 6.32 µg/mL (≈ 15.7 µM) |
| O=C1Nc2ncc(/C=C/C(=O)N3CC=C(c4ccccc4)CCC3)cc2CN2CCSCC12 (stereo not shown) [compound 51] | 224 °C | 1.11 µM | 0.67 µg/mL (≈ 1.45 µM) | 1.6 µg/mL | 5.35 µg/mL (≈ 11.6 µM) |
| CS(=O)(=O)N1CC(=O)Nc2ncc(/C=C/C(=O)N3CCC=C(c4ccccc4)CC3)cc2C1 [compound 37] |  | 0.686 µM | 0.48 µg/mL (≈ 1.03 µM) | 0.66 µg/mL | 2.04 µg/mL (≈ 4.37 µM) |
| Cn1nccc1C(=O)Nc1ccc(/C=C/C(=O)N2CCC=C(c3ccccc3)CC2)cn1 [compound 10] | 138 °C | 1.92 µM | 0.92 µg/mL (≈ 2.15 µM) | 2.07 µg/mL | 5.44 µg/mL (≈ 12.7 µM) |
| Nc1ccc(/C=C/C(=O)N2CCC=C(c3ccccc3)CC2)cn1 [compound 23] |  | 3.01 µM | 13.3 µg/mL (≈ 41.7 µM) | > 20.1 µg/mL | 5.3 µg/mL (≈ 16.6 µM) |
| CC(C)CC(=O)Nc1ccc(/C=C/C(=O)N2CCC=C(c3ccccc3)CC2)cn1 [compound 26] |  | 1.39 µM | > 25.5 µg/mL | > 25.5 µg/mL | 3.77 µg/mL (≈ 9.34 µM) |

Further lines, with some results ahead:

| melting point | IC50 [1] | IC90 [2] | IC90 (S. aureus) | Compound | CC50 at 72 h (Cytotoxicity MTT assay) |
| --- | --- | --- | --- | --- | --- |
| 218.22 °C | ~1.02 µM | 0.38 µg/mL (≈ 0.897 µM) | 0.54 µg/mL | COc1ccc(F)cc1C1=CCCN(C(=O)/C=C/c2cnc3c(c2)COC(=O)N3)CC1 [compound 35] | 6.56 µg/mL (≈ 15.5 µM) |
| 120 °C | 1.79 µM | 0.66 µg/mL (≈ 1.36 µM) | 2.83 µg/mL | COc1ccc(F)cc1C1=CCCN(C(=O)/C=C/c2ccc(NC(=O)c3cncc(C)c3)nc2)CC1 [compound 5] | 7.8 µg/mL (≈ 16 µM) |
|  | 0.662 µM | 0.78 µg/mL (≈ 2.25 µM) | 1.25 µg/mL | O=CNc1ccc(/C=C/C(=O)N2CCC=C(c3ccccc3)CC2)cn1 [compound 7] | 7.18 µg/mL (≈ 20.7 µM) |
| 234 °C | 1.26 µM | 0.22 µg/mL (≈ 0.503 µM) | 0.41 µg/mL | COc1ccc(F)cc1C1=CCCN(C(=O)/C=C/c2cnc3c(c2)COCC(=O)N3)CC1 [compound 32] | 10.1 µg/mL (≈ 23.2 µM) |
| 158 °C | 1.28 µM | 6.32 µg/mL (≈ 16.2 µM) | 20.9 µg/mL | CC(C)C(=O)Nc1ccc(/C=C/C(=O)N2CCC=C(c3ccccc3)CC2)cn1 [compound 19] | 8.52 µg/mL (≈ 21.9 µM) |
|  | 3.1 µM | > 27.1 µg/mL | > 27.1 µg/mL | O=C(Nc1ccc(/C=C/C(=O)N2CCC=C(c3ccccc3)CC2)cn1)C1CCCCC1 [compound 29] | 3.15 µg/mL (≈ 7.33 µM) |
|  | ~1.76 µM | 27.7 µg/mL (≈ 66.3 µM) | 33.3 µg/mL | O=C(Nc1ccc(/C=C/C(=O)N2CCC=C(c3ccccc3)CC2)cn1)C1CCCO1 (stereo not shown) [compound 30] | 11 µg/mL (≈ 26.4 µM) |
| 192 °C | 2.13 µM | 0.84 µg/mL (≈ 1.96 µM) | 6.7 µg/mL | Cc1occc1C(=O)Nc1ccc(/C=C/C(=O)N2CCC=C(c3ccccc3)CC2)cn1 [compound 8] | 5.64 µg/mL (≈ 13.2 µM) |
|  | 1.2 µM | > 26.8 µg/mL | 26.2 µg/mL | O=C(Nc1ccc(/C=C/C(=O)N2CCC=C(c3ccccc3)CC2)cn1)c1cnccn1 [compound 28] | > 10.7 µg/mL |
| 134 °C | 2.41 µM | 4.29 µg/mL (≈ 10 µM) | 8.56 µg/mL | Cn1cnc(C(=O)Nc2ccc(/C=C/C(=O)N3CCC=C(c4ccccc4)CC3)cn2)c1 [compound 17] | 13.9 µg/mL (≈ 32.5 µM) |
|  | ~1.51 µM | 0.77 µg/mL (≈ 1.66 µM) | 3.33 µg/mL | O=C1CN(c2ccccc2)Cc2cc(/C=C/C(=O)N3CCC=C(c4ccccc4)CC3)cnc2N1 [compound 42] | 11.7 µg/mL (≈ 25.1 µM) |
|  | 0.743 µM | 0.51 µg/mL (≈ 1.18 µM) | 0.75 µg/mL | CC(=O)N1CC(=O)Nc2ncc(/C=C/C(=O)N3CCC=C(c4ccccc4)CC3)cc2C1 [compound 39] | > 10.8 µg/mL |
|  | 1.4 µM | 0.63 µg/mL (≈ 1.47 µM) | 1.66 µg/mL | Cn1cc(C(=O)Nc2ccc(/C=C/C(=O)N3CCC=C(c4ccccc4)CC3)cn2)cn1 [compound 4] | 3.94 µg/mL (≈ 9.22 µM) |
|  | ~1.07 µM | 2.84 µg/mL (≈ 7.07 µM) | 11.8 µg/mL | CC1(C(=O)Nc2ccc(/C=C/C(=O)N3CCC=C(c4ccccc4)CC3)cn2)CC1 [compound 15] | 6.59 µg/mL (≈ 16.4 µM) |
